Data taken from patent US20180256519A1, “COMPOSITION FOR PREVENTING OR TREATING MITOCHONDRIAL DISEASES CAUSED BY IMMUNOSUPPRESSANTS, AND IMMUNE DISEASES, CONTAINING METFORMIN” (THE CATHOLIC UNIVERSITY OF KOREA INDUSTRY-ACADEMIC …, priority 2015, published 2018).

Key:
[1] = tested on: allogeneic reactive T cells; test: Allogeneic reactive T cell proliferation, mixed lymphocyte reaction ([3H]-thymidine uptake); type: cell-based, mouse (Balb/c, C57BL/6); conditions: metformin 1000 uM, rapamycin 1 nM or 100 nM; 3 days
Experimental: CD4+ T cells (2×10^5 cells/well) from normal donors (Balb/c, responder) and splenocytes (2×10^5 cells/well) with T cells removed, which were derived from irradiated recipients (syngeneic) or donors (C57BL/ 6, stimulator, allogeneic), were added to each well of a 96-well plate, followed by mixed incubation. Here, for the allogeneic reaction, the cells were treated with metformin (1000 uM) and rapamycin (1 nM or 100 nM) according to experimental conditions, followed by incubation for 3 days. On the last day of the incubation, [^3H]-thymidine was added, followed by additional incubation for 18 hours, and the [^3H]-thymidine uptake of cells was measured by the Liquid Scintillation Counter (Beckman, USA), and expressed as cpm. Statistical assay was conducted by using Graph prism (t-test, ANOVA), and values of p<0.05 were considered statistically significant.

IFN-γ = IFN-γ secretion by allogeneic reactive T cells in mixed lymphocyte reaction (ELISA); type: cell-based, mouse (Balb/c, C57BL/6); conditions: metformin 1000 μM, rapamycin 1 nM or 100 nM; 3 days
[2] = tested on: Splenocytes obtained from normal C57BL/6 mice; test: MTT non-specific cytotoxicity in T cell activation conditions; type: cell-based; conditions: metformin 1000 μM, rapamycin 100 nM; 3 days; anti-CD3 0.5 μg/ml
Experimental: (§1) Splenocytes obtained from normal C57BL/6 mice were added at 2×10^5 cells in the 96-well plate, and treated with metformin (1000 μM) or rapamycin (100 nM) according to experimental conditions, followed by incubation for 3 days, under anti-CD3 activation conditions (0.5 μg/ml). For MTT analysis, 3-(4,5-dimethyl-thiazol-2-yl)-2,5-diphenyltetrazolium bromide was added 4 hours before cell harvest, followed by incubation for 4 hours, and then each well was treated with DMSO, and the absorbance was measured at the wavelength of 540 nm.

IL-17 = IL-17 secretion by splenocytes in T cell activation conditions (ELISA); type: cell-based, C57BL/6 mice; conditions: metformin 1000 uM, rapamycin 100 nM; 3 days; anti-CD3 0.5 μg/ml; vs Nil
Experimental: as §1
The cells were treated with metformin (1000 uM) or rapamycin (100 nM) according to experimental conditions, followed by incubation for 3 days, and then the amount of IL-17 present in the culture liquid was measured by ELISA.

Treg cells = test: Treg cell activity in splenocytes under anti-CD3 activation (flow cytometry); type: cell-based, C57BL/6 mice; conditions: metformin 1000 μM, rapamycin 100 nM; 3 days; anti-CD3 0.5 μg/ml
Experimental: Splenocytes obtained from normal C57BL/6 mice were added at 1×10^6 cells in the 24-well plate, and treated with metformin (1000 μM) or rapamycin (100 nM) according to experimental conditions, followed by incubation for 3 days, under anti-CD3 activation conditions (0.5 μg/ml). For flow cytometry, the cells were treated with anti-CD4-percp antibody and anti-CD25-APC antibody, followed by incubation at 4[…] for 30 minutes, and then the cells were subjected to permeabilization, and then reacted with anti-Foxp3-PE. For analysis of Treg activity, the cells expressing the CD4+CD25+Foxp3+ marker were gated and analyzed. The results were expressed by a bar graph showing the proportion of Foxp3+CD25+ cells occupying in the cultured all CD4+ cells.

[3] = tested on: LPS-stimulated splenocytes; test: Inflammatory cytokines secreted in LPS-stimulated splenocytes (ELISA); type: cell-based, C57BL/6 mice; conditions: LPS 100 ng/ml; metformin 1000 uM, rapamycin 100 nM; 3 days
Experimental: Splenocytes obtained from normal C57BL/6 mice were added into a 24-well plate (1×10^6 cells/well), and stimulated by LPS (100 ng/ml), and then treated with metformin (1000 uM) or rapamycin (100 nM) according to experimental conditions, followed by incubation for 3 days. […] Statistical analysis was conducted by using Graph prism (t-test, ANOVA), and values of p<0.05 were considered statistically significant.

[4] = tested on: LPS-stimulated splenocytes; test: Immunoglobulin (IgG) in culture liquid of LPS-stimulated splenocytes (ELISA); type: cell-based, mouse; conditions: LPS 100 ng/ml; metformin 1000 uM, rapamycin 100 nM
Experimental: Splenocytes obtained from normal C57BL/6 mice were added into a 24-well plate (1×10^6 cells/well), and stimulated by LPS (100 ng/ml), and then treated with metformin (1000 uM) or rapamycin (100 nM) according to experimental conditions, followed by incubation for 3 days. […] Statistical analysis was conducted by using Graph prism (t-test, ANOVA), and values of p<0.05 were considered statistically significant.
Thereafter, the level of IgG present in the culture liquid was measured by ELISA.

[5] = tested on: Synovial cells isolated from patients with rheumatoid arthritis (RA); test: Measurement of mitochondrial respiration (oxygen consumption rate); type: cell-based, human; conditions: rapamycin 100 nM
Experimental: The present inventors examined the effect of metformin on rapamycin-induced mitochondrial respiration deterioration. The cells were treated with rapamycin (100 nM) alone or co-treated with rapamycin (100 nM) and metformin (1 mM), and then the mitochondrial respiratory rate was examined through the measurement of the oxygen consumption rate. Oligomycin and FCCP treatment conditions were the same.

NIH3T3 cells [6] = test: Analysis of mitochondrial content (MitoTracker staining); type: cell-based; conditions: 72-hr incubation; rapamycin 1 nM, metformin 200 uM or 1 mM
Experimental: The mitochondria were observed by fluorescent microscopy for each experimental condition. Specifically, the MitoTracker was diluted in DMEM medium to a concentration of 100 nM, and then added on the NIH3T3 plate, followed by incubation at 37° C. for 15 minutes and washing with PBS. Thereafter, for α-tubulin staining, the cells were fixed with acetone and methanol (1:1) for 15 minutes, and then washed with PBS for 15 minutes.

NIH3T3 cells [7] = test: Analysis of mitochondrial membrane potential (JC-1 staining); type: cell-based; conditions: 72-hr incubation; rapamycin 1 nM, metformin 200 uM or 1 mM
Experimental: For JC-1 staining, the cells were incubated in JC-1, which had been diluted in DMEM to a final concentration of 100 nM, at 37 °C for 15 minutes, and then the exchange into new DMEM medium was conducted, followed by observation by fluorescent microscopy.

Sprague-Dawley rats = test: Rapamycin-induced diabetic symptoms and metformin co-administration in rats (body weight, urine volume, IPGTT, ITT); type: in vivo, rat
Experimental: As experimental animals, Sprague-Dawley rats with 200-220 grams were used. The animals were fed with a 0.05% low-salt diet, and the experiment was conducted for a total of 6 weeks while drugs were administered according to experimental conditions (FIG. 5). […] Rapamycin dissolved in olive oil was subcutaneously injected into the rapamycin administered alone group (Rapamycin) and the co-administered group (Rapa+Met) at a dose of 0.3 mg/kg of body weight every day for six weeks. Metformin was orally administered at a dose of 250 mg/kg of body weight every day for 2.5 weeks from the 3.5 weeks of rapamycin administration. Distilled water (DW, 3 mL/kg) instead of metformin was orally administered into the rapamycin administered alone group and the control group. The body weight and 24-hr urine volume of the control and experimental groups were measured six weeks after the start of the experiment FIGS. 6A and 6B. The urine volume was measured in the metabolic cage. The animals of each group were tested for the intraperitoneal glucose tolerance test (IPGTT) and the insulin tolerance test (ITT), and the change in blood glucose level over time was observed FIGS. 7A, 7B, 8A and 8B). The intraperitoneal glucose tolerance test (IPGTT) was performed by intraperitoneal administration of 1.5 g/kg of body weight of glucose after fasting. The insulin resistance test was carried out such that the blood glucose level was measured at 30-min intervals after subcutaneous injection of insulin at 0.8 U/kg of body weight following 5-hr fasting. The quantitative index (area under the curve of glucose, AUCg) was derived using a graph of blood glucose level change per hour, and was expressed as a bar graph. Data were expressed as mean value±standard deviation, and statistical significance was determined by student's t-test.

[8] = tested on: collagen-induced arthritis mouse models; test: Glucose tolerance test and insulin tolerance test in arthritis animal models; type: in vivo; conditions: arthritis mice after 12 weeks, rapamycin 1 mg/kg
Experimental: The intraperitoneal glucose tolerance test was performed by intraperitoneal injection of glucose at 1 g/kg of body weight after fasting for 12 hours. The insulin tolerance test was performed at 30 minutes interval after the subcutaneous injection of […] at 1 U/kg of body weight.

[9] = rapamycin 0.3 mg/kg s.c. daily 6 weeks, metformin 250 mg/kg oral daily from 3.5 weeks, vs control group (VH)

| Compound | allogeneic reactive T cell proliferation ([3H]-thymidine uptake, cpm) [1] | secretion of IFN-γ (IFN-γ) | non-specific cytotoxicity (MTT) [2] | amount of IL-17 present in the culture liquid (IL-17) | Treg activity (proportion of Foxp3+CD25+ cells in CD4+ cells) (Treg cells) | concentration of IL-6 present in the culture liquid [3] | concentration of TNF-α present in the culture liquid [3] | concentration of immunoglobulin (IgG) present in the culture liquid [4] | increase in mitochondrial respiratory rate by FCCP ([5]; FCCP 3 uM, metformin 1 mM) | mitochondrial respiration capacity (oxygen consumption rate) ([5]; before the treatment with oligomycin, vs control group) | mitochondrial content (MitoTracker) (NIH3T3 cells [6]) | mitochondrial membrane potential (JC-1 staining) (NIH3T3 cells [7]) | blood glucose level in intraperitoneal glucose tolerance test (IPGTT) (Sprague-Dawley rats; glucose 1.5 g/kg i.p. after fasting, rapamycin 0.3 mg/kg, metformin 250 mg/kg) | blood glucose level in insulin tolerance test (ITT) (Sprague-Dawley rats; insulin 0.8 U/kg s.c. after 5-hr fasting, rapamycin 0.3 mg/kg, metformin 250 mg/kg) | 24-hr urine volume (Sprague-Dawley rats; [9]) | body weight (Sprague-Dawley rats; [9]) | blood glucose level in intraperitoneal glucose tolerance test ([8]; glucose 1 g/kg i.p. after 12 h fasting, metformin 50 mg/kg) | glucose level in insulin tolerance test, start point of measurement [8] | blood glucose level in insulin tolerance test, after the start point ([8]; metformin 50 mg/kg, vs control group (Vehicle)) |
| --- | --- | --- | --- | --- | --- | --- | --- | --- | --- | --- | --- | --- | --- | --- | --- | --- | --- | --- | --- |
| CN(C)C(=N)NC(=N)N [metformin] | reduced the cpm values | reduced | no non-specific cytotoxicity | reduced | increased | reduced | reduced | reduced | – | – | – | – | – | – | – | – | – | – | – |
| CO[C@H]1C[C@@H]2CC[C@@H](C)[C@@](O)(O2)C(=O)C(=O)N2CCCC[C@H]2C(=O)O[C@H]([C@H](C)C[C@@H]2CC[C@@H](O)[C@H](OC)C2)CC(=O)[C@H](C)/C=C(\C)[C@@H](O)[C@@H](OC)C(=O)[C@H](C)C[C@H](C)/C=C/C=C/C=C/1C [rapamycin] | reduced the cpm values | reduced | no non-specific cytotoxicity | reduced | increased | reduced | reduced | reduced | remarkably low | reduced respiration capacity compared with the control group | reduced | not normally maintained | highest blood glucose level among the three groups | highest blood glucose level among the three groups | significantly increased | significant reductions | the highest | the highest | maintained at similar levels |
